What was measured:
P450 3A4 [1] = biological target: T1, P450 3A4 (Homo sapiens, UniProt P08684); experiment: Human liver microsomes, testosterone 6β-hydroxylation; format: biochemical; settings: pooled human liver microsomes
Description: (§1) Human liver tissues were obtained from the University of Chicago Distribution Center of […] (Liver Transplant Procurement and Distribution Service, University of Minnesota, Minneapolis, Minn.), Human Biologics Inc. (Phoenix, Ariz.) and the International Institute for the Advancement of Science (Exton, Pa.). The liver microsomes were prepared by differential centrifugation. […] Anal. […] S. Hydroxylation of chlorzoxazone as a specific probe for human liver cytochrome P-450 IIEI. Chem. Res. […] The reactions were initiated by the additions of 1 mM NADPH and terminated in ice. […] A. Assay of mephenytoin metabolism in human liver microsomes by high-performance liquid chromatography. […] Experimental controls consisted of the complete incubation components without the addition of BG.
Target sequence in this assay (P08684 whole entry): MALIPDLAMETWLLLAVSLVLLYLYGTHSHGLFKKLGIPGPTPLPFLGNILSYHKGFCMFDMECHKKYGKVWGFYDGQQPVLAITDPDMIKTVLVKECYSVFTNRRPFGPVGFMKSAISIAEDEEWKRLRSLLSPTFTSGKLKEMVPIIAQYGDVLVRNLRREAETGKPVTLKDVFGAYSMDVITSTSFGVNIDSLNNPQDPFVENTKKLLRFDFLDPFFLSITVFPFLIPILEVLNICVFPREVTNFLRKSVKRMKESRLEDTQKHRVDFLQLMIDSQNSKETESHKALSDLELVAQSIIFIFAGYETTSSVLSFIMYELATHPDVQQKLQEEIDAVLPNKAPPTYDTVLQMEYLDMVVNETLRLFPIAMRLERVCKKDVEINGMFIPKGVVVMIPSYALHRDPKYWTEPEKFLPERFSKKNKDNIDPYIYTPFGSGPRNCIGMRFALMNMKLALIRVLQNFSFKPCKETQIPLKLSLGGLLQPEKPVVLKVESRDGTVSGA

P450 2D6 = biological target: T2, P450 2D6 (Homo sapiens, UniProt P10635); experiment: Human liver microsomes, racemic bufurolol 1′-hydroxylation; format: biochemical; settings: pooled human liver microsomes
T2 construct: Pooled human liver microsomes; from tissue; host or cells: human liver microsomes, pool of 6
T2 sequence (P10635 whole entry): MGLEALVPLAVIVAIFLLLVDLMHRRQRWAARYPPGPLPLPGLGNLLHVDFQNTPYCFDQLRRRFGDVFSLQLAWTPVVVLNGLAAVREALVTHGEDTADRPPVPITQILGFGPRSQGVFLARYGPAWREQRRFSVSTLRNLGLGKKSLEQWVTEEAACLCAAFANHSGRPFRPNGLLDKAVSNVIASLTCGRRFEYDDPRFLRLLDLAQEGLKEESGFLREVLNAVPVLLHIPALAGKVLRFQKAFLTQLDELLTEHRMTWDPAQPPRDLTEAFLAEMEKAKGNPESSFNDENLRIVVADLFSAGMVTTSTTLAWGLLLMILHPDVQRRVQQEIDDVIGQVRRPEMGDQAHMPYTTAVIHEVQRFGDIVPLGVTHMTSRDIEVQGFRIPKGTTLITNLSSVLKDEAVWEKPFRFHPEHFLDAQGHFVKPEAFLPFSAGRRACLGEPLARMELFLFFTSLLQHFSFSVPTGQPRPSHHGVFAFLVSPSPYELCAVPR
Description: (§2) Human liver tissues were obtained from the University of Chicago Distribution Center of […] (Liver Transplant Procurement and Distribution Service, University of Minnesota, Minneapolis, Minn.), Human Biologics Inc. (Phoenix, Ariz.) and the International Institute for the Advancement of Science (Exton, Pa.). The liver microsomes were prepared by differential centrifugation. Caffeine N3-demethylation (Tassaneeyakul W., Mohammed […]., Veronese M. E., Tukey R. H., Quattrochi […]., and Miners J. O. Caffeine as a probe for human cytochromes P450: Validation using cDNA-expression,immunoinhibition, and microsomal kinetic and inhibitor techniques. Pharmacogenetics, 1992;2:173-183), coumarin 7-hydroxylation ([…]. Metabolism of coumarin by rat, gerbil, and human liver microsomes. Xenobiotica, 1992;22:357-367), tolbutamide hydroxylation (Miners J. O., Smith K. J., Robson […]., Veronese M. E., and Birkett D. J. Tolbutamide hydroxylation by human liver microsomes: Kinetic characterization and relationship to other cytochrome P-450 dependent xenobiotic oxidations. Biochem. Pharmacol., 1988;37:1137-1144), racemic bufurolol 1'-hydroxylation ([…]., Gut […]., and Meyer U. A. […] Anal. […] S. Hydroxylation of chlorzoxazone as a specific probe for human liver cytochrome P-450 IIEI. Chem. Res. […] The reactions were initiated by the additions of 1 mM NADPH and terminated in ice. […]

P450 3A4 [2] = biological target: T1, P450 3A4; experiment: HPLC analysis of BG-inactivated P450 3A4 on a Poros column; format: biochemical; set-up: A full-length P450 3A4 cDNA (except for the deletion of codons 3-12 at the 5′-end); made in house; host or cells: E. coli MV1304 (pCW vector)
Source text: S., Hopkins N. E., Alworth D. A., and Hollenberg P. F. […] The eluate was monitored by UV detection at […], 310, and 405 nm simultaneously.
Target sequence in this assay (P08684 with tags, fused parts or gaps): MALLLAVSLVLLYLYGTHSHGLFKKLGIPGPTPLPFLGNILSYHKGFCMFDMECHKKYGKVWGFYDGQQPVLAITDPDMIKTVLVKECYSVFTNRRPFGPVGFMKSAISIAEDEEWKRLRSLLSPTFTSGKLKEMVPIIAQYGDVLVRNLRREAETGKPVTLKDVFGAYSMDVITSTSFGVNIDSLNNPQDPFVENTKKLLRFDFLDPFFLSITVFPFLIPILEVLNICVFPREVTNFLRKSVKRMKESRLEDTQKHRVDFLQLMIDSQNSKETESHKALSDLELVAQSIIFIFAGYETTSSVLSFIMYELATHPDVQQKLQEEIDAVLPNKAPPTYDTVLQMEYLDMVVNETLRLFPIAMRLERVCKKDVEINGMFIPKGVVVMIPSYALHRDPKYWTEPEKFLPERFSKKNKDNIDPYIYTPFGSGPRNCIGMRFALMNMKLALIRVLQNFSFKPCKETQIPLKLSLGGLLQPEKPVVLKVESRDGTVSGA

P450 3A4 [3] = biological target: T1, P450 3A4; experiment: BG-mediated inactivation of P450 3A4 in a reconstituted system, testosterone 6β-hydroxylation activity
Target sequence in this assay (P08684 with tags, fused parts or gaps): as above

P450 2C9 = biological target: T3, P450 2C9 (Homo sapiens, UniProt P11712); experiment: Human liver microsomes, tolbutamide hydroxylation; format: biochemical; settings: pooled human liver microsomes
T3 construct: Pooled human liver microsomes; from tissue; host or cells: human liver microsomes, pool of 6
T3 sequence (P11712 whole entry): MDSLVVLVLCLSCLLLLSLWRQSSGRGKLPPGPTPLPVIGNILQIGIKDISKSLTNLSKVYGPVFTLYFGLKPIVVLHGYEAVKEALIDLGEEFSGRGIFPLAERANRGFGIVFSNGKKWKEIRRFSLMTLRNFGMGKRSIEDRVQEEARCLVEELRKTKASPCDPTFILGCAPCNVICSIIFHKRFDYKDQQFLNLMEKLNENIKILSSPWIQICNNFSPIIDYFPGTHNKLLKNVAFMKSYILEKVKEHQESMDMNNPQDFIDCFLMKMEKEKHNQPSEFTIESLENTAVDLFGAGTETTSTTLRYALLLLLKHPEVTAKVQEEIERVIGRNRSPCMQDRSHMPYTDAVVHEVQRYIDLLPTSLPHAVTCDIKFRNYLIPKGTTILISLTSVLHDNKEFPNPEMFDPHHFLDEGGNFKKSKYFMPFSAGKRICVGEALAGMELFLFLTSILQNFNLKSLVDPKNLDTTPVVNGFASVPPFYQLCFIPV
Description: as §1

P450 2C19 = biological target: T4, P450 2C19 (Homo sapiens, UniProt P33261); experiment: Human liver microsomes, (S)-mephenytoin 4′-hydroxylation; format: biochemical; settings: pooled human liver microsomes, probe (S)-mephenytoin (50 μM), read-out: P450 2C19 activity inhibited
T4 construct: incubated with pooled human liver microsomes; from tissue; host or cells: pooled human liver microsomes
T4 sequence (P33261 whole entry): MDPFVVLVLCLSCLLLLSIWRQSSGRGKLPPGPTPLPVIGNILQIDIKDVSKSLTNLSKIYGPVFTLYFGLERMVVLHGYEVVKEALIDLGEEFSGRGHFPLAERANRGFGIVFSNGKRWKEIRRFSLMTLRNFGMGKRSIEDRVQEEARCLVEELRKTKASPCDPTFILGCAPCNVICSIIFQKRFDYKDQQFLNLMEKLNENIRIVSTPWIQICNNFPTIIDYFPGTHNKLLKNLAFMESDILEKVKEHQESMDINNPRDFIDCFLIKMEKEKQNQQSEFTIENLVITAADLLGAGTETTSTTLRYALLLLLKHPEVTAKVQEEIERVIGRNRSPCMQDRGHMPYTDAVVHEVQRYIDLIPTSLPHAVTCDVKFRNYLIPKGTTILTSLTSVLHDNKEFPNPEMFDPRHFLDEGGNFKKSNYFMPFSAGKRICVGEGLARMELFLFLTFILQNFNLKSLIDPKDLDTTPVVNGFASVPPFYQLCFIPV
Description: as §2

P450 1A2 = biological target: T5, P450 1A2 (Homo sapiens, UniProt P05177); experiment: Human liver microsomes, caffeine N3-demethylation; format: biochemical; settings: pooled microsomes, 100 μM caffeine
T5 sequence (P05177 1-516): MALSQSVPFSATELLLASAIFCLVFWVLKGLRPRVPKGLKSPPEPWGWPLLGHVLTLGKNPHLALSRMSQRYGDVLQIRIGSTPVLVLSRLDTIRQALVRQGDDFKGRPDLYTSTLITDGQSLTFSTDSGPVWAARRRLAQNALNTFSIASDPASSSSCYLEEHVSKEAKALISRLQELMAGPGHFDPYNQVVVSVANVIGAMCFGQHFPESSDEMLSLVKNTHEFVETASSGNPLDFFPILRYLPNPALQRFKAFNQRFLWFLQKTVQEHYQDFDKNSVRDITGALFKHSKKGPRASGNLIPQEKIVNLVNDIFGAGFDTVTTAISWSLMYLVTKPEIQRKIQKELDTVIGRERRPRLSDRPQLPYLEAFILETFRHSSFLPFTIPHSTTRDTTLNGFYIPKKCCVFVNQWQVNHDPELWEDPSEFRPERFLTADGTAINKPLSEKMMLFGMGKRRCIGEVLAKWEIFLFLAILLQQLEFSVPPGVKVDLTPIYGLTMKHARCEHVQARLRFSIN
Description: as §2

P450 2A6 = biological target: T6, P450 2A6 (Homo sapiens, UniProt P11509); experiment: Human liver microsomes, coumarin 7-hydroxylation; format: biochemical; settings: pooled microsomes, 4 μM coumarin
T6 construct: Pooled human liver microsomes; from tissue; host or cells: human liver microsomes, pool of 6
T6 sequence (P11509 1-494): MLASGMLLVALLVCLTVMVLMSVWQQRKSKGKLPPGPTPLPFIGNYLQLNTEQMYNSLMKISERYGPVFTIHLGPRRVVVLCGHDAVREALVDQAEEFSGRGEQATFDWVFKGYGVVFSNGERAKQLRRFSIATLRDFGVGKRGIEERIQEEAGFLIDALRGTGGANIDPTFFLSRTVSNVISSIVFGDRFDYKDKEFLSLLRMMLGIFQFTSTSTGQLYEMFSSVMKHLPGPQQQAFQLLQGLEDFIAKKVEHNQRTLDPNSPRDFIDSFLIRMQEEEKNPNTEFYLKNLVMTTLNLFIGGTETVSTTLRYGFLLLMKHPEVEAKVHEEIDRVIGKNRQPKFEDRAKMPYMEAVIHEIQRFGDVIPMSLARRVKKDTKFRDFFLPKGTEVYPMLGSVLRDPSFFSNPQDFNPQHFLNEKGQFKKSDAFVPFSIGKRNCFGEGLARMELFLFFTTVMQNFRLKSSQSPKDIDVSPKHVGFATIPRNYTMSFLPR
Description: as §2

P450 3A4 [4] = biological target: T1, P450 3A4; experiment: P450 content by reduced-CO difference spectrum after incubation in the reconstituted system; format: biochemical; set-up: A full-length P450 3A4 cDNA (except for the deletion of codons 3-12 at the 5′-end); made in house; host or cells: E. coli MV1304 (pCW vector); settings: 50 μM BG, 15 minutes; for P450: 37° C.
Description: Reactions with various concentrations of BG were initiated by addition of 1 mM NADPH, and terminated on ice. The incubations were performed at 37° C. for the time periods indicated. […] The spectra were recorded between 330 to 700 nm against the diluting buffer as reference on a […] spectrophotometer in the split beam mode.
Target sequence in this assay (P08684 with tags, fused parts or gaps): as the sequence (P08684 with tags, fused parts or gaps) above

P450 2E1 = biological target: T7, P450 2E1 (Homo sapiens, UniProt P05181); experiment: Human liver microsomes, chlorzoxazone 6-hydroxylation; format: biochemical; settings: pooled human liver microsomes
T7 construct: Pooled human liver microsomes; from tissue; host or cells: human liver microsomes, pool of 6
T7 sequence (P05181 whole entry): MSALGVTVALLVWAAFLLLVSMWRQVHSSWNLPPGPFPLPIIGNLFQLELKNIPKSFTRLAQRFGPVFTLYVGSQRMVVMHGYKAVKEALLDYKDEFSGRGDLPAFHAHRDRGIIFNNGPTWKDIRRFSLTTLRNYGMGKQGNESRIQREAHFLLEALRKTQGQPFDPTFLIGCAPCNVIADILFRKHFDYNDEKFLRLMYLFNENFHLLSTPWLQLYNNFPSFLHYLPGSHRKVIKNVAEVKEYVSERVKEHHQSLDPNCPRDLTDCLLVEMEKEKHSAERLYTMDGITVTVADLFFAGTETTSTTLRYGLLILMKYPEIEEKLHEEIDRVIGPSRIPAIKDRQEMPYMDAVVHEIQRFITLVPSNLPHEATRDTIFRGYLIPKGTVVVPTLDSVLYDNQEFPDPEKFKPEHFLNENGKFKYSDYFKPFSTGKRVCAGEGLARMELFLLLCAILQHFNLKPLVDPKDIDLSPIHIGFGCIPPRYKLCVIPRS
Description: as §2

[5] = human, pH 7.5, probe testosterone (200 μM), 6β-hydroxylation

For CC(C)=CCC/C(C)=C/COc1c2ccoc2cc2oc(=O)ccc12 [BG, (E)-4-[(3,7-dimethyl-2,6-octadienyl)oxy]-7H-furo[3,2-g][1]benzopyran-7-one], the IC50 (P450 3A4 [1]) was roughly 4.6 µM, the IC50 (P450 2D6) was roughly 3 µM and the “decrease of the amount of apoP450 3A4” value (P450 3A4 [2]; 50 μM BG, reverse phase HPLC, vs −NADPH control) was “about 50%”. The heme recovered (P450 3A4 [2]; BG inactivated P450 3A4 sample) was “Approximately 90%”, the “reductase and cytochrome b5 protein recovered from the column” value (P450 3A4 [2]; compared with −NADPH controls) was roughly 100% and the “inactivation of testosterone 6β-hydroxylation activity” value (P450 3A4 [3]; 2 μM BG with α-naphathoflavone 6 to 50 μM) was “about 55%”. For the same molecule, the “loss of testosterone 6β-hydroxylation activity” value (P450 3A4 [3]; 50 μM BG, with NADPH, 37° C., 15 minutes) was 90%, the “Testosterone 6β-hydroxylation” value (P450 3A4 [3]; BG+/NADPH+, 50 μM BG, 37° C., 15 minutes) was 0.8 nmol/min/nmol and the “Testosterone 6β-hydroxylation” value (P450 3A4 [3]; BG+/NADPH−, 50 μM BG, 37° C., 15 minutes) was 2.9 nmol/min/nmol. For the same molecule, the KI (inactivation) (P450 3A4 [3]; [5]) was 7.7 µM, the inhibition at 50 μM (P450 3A4 [3]; [5]) was roughly 60% and the inhibition at […] (P450 3A4 [3]; [5]) was roughly 55%. For the same molecule, the kinact (P450 3A4 [3]; read-out: Kinactivation (maximal rate constant of inactivation)) was 0.005 s⁻¹, the “Kinactivation (maximal rate constant of inactivation)” value (P450 3A4 [3]; reconstituted system) was 0.3 min⁻¹ and the IC50 (P450 2C9) was roughly 2.4 µM. For the same molecule, the inhibition at 2 μM (P450 2C19; 2 μM BG) was roughly 71%, the inhibition at 20 μM (P450 2C19; 20 μM BG) was roughly 100% and the “P450 1A2 activity in human liver microsomes” value (P450 1A2) was “inhibited”. The “P450 2A6 activity in human liver microsomes” value (P450 2A6) was “inhibited”, the “decrease of P450 content (reduced-CO spectrum)” value (P450 3A4 [4]; with NADPH) was “approximately 40%” and the P450 (P450 3A4 [4]; BG+/NADPH+) was 0.27 nmol/mL. The P450 (P450 3A4 [4]; BG+/NADPH−) was 0.47 nmol/mL and the IC50 (P450 2E1) was roughly 3.9 µM.
